In patent publication US5457121A, “Cis-hexahydro-5-(1,2,3,4-tetrahydro-2-naphthalenyl)pyrrolo<3,4-c> pyrroles as inhibitors of serotonin reuptake” (Eli Lilly and Company, priority 1994, dated 1995) one finds IC50 data, which are given here for twelve molecules.

For this test, the system named is serotonin reuptake (5HT), rat cerebral cortex synaptosomes. In words: Inhibition of synaptosomal reuptake of 3H-serotonin (3H-5HT) in cortical synaptosomes. It counts as biochemical, rat (male Sprague-Dawley). The settings on record: 37° C., 5 min, 50 nM 3H-5HT, read-out: IC50 (nM) 5HT (concentration needed to inhibit the uptake of 3H-5HT by 50%). How it is done: This general procedure is described in Wong et al., Drug Development Research, 6, 397-403 (1985).
Male Sprague-Dawley rats (110-150 gm) from Harlan Industries (Cumberland, Ind.) were fed Purina Chow ad libitum for at least three days before being used in the study. Rats were killed by decapitation. Whole brains were removed and dissected. Cerebral cortex was homogenized in 9 volumes of a medium containing 0.32 M sucrose and 10 mM glucose. Crude synaptosomal preparations were isolated after differential centrifugation at 1,000 g for 10 min. and 17,000 g for 28 min. The final pellets were suspended in the same medium and kept in ice until use within the same day.
Synaptosomal reuptake of ^3 H-serotonin (^3 H-5-hydroxytryptamine, ^3 H-5HT) was determined as follows: Cortical synaptosomes (equivalent to 1 mg protein) were incubated at 37° C. for 5 min. in 1 mL of Krebs-bicarbonate medium containing also 10 mM glucose, 0.1 mM iproniazide, 1 mM ascorbic acid, 0.17 mM EDTA and 50 nM ^3 H-5HT. The reaction mixture was immediately diluted with 2 mL of ice chilled Krebs-bicarbonate buffer and filtered under vacuum with a cell harvester (Brandel, Gaithersburg, Md.). Filters were rinsed twice with approximately 5 mL ice chilled 0.9% saline and were transferred to a counting vial containing 10 mL of scintillation fluid (PCS, Amersham, Arlington Heights, Ill.). Radioactivity was measured by a liquid scintillation spectrophotometer. Accumulation of ^3 H-5HT at 4° C. represented the background and was subtracted from all samples.

In the case of `CN1C[C@@H]2CN(C3CCc4ccccc4C3)C[C@@H]2C1` (relative stereo) [Example 1, cis-hexahydro-2-methyl-5-(1,2,3,4-tetrahydro-2-naphthalenyl) pyrrolo<3,4-c>pyrrole dimaleate], the IC50 turned out to be 122 nM.

As to `CN1C[C@@H]2CN(C3CCc4cccc(Cl)c4C3)C[C@@H]2C1` (relative stereo) [Example 2, cis-hexahydro-2-methyl-5-(1,2,3,4-tetrahydro-8-chloro-2-naphthalenyl)pyrrolo<3,4-c>pyrrole dimaleate], the IC50 stood at 42 nM. The result for `COc1cccc2c1CC(N1C[C@H]3CN(C)C[C@H]3C1)CC2` (relative stereo) [Example 3, cis-hexahydro-2-methyl-5-(1,2,3,4-tetrahydro-8-methoxy-2-naphthalenyl)pyrrolo<3,4-c>pyrrole dimaleate] reads 20 nM; that for `CN1C[C@@H]2CN(C3CCc4cccc(O)c4C3)C[C@@H]2C1` (relative stereo) [Example 4, cis-hexahydro-2-methyl-5-(1,2,3,4-tetrahydro-8-hydroxy-2-naphthalenyl)pyrrolo<3,4-c>pyrrole dimaleate], 5.4 nM; that for `COc1ccc(Br)c2c1CC(N1C[C@H]3CN(C)C[C@H]3C1)CC2` (relative stereo) [Example 5, cis-hexahydro-2-methyl-5-(1,2,3,4-tetrahydro-5-bromo-8-methoxy-2-naphthalenyl)pyrrolo<3,4-c>pyrrole dimaleate], 38 nM. The result for `COc1cccc2c1CC(N1C[C@H]3CN(Cc4ccccc4)C[C@H]3C1)CC2` (relative stereo) [Example 6, cis-hexahydro-2-benzyl-5-(1,2,3,4-tetrahydro-8-methoxy-2-naphthalenyl)pyrrolo<3,4-c>pyrrole dimaleate] reads 60 nM; that for `COc1cccc2c1CC(N1C[C@H]3CNC[C@H]3C1)CC2` (relative stereo) [Example 7, cis-hexahydro-5-(1,2,3,4-tetrahydro-8-methoxy-2-naphthalenyl)pyrrolo<3,4-c>pyrrole dimaleate], 30 nM; that for `COc1ccc(Br)c2c1CC(N1C[C@H]3CNC[C@H]3C1)CC2` (relative stereo) [Example 8, cis-hexahydro-5-(1,2,3,4-tetrahydro-5-bromo-8-methoxy-2-naphthalenyl)pyrrolo<3,4-c>pyrrole dimaleate], 50 nM. In the case of `Cc1cccc2c1CC(N1C[C@H]3CN(C)C[C@H]3C1)CC2` (relative stereo) [Example 9, cis-hexahydro-2-methyl-5-(1,2,3,4-tetrahydro-8-methyl-2-naphthalenyl)pyrrolo<3,4-c>pyrrole dimaleate] it was 293 nM. Turning to `Cc1ccc(Br)c2c1CC(N1C[C@H]3CN(C)C[C@H]3C1)CC2` (relative stereo) [Example 10, cis-hexahydro-2-methyl-5-(1,2,3,4-tetrahydro-5-bromo-8-methyl-2-naphthalenyl)pyrrolo<3,4-c>pyrrole dimaleate], the IC50 stood at 413 nM. The result for `COc1cccc2c1[C@@H](C)[C@@H](N1C[C@H]3CN(C)C[C@H]3C1)CC2` (relative stereo) [Example 11, cis-hexahydro-2-methyl-5-(cis-1-methyl-1,2,3,4-tetrahydro-8-methoxy-2-naphthalenyl)pyrrolo<3,4-c>pyrrole dimaleate] reads 65 nM; that for `COc1cccc2c1[C@@H](C)[C@@H](N1C[C@H]3CNC[C@H]3C1)CC2` (relative stereo) [Example 12, cis-hexahydro-5-(cis-1-methyl-1,2,3,4-tetrahydro-8-methoxy-2-naphthalenyl)pyrrolo<3,4-c>pyrrole dimaleate], 340 nM.
